From US20030211163A1, “Combination antiviral therapy” (priority 2002, published 2003)
≈ marks a conversion by molar mass, not a printed value. Where two headings read alike, the source gives them in different places.

Legend:
[1] = Solubility of the drug in vehicles (drug saturated solutions); format: physicochemical
[2] = Franz diffusion cell skin drug permeation through cadaver skin, 24 hour period, HPLC; format: in vitro ADME; settings: for Flux: cadaver skin; for Skin Flux: Table 4 (examples)
Protocol: As a way of measuring the skin drug permeation properties of the COX-2 inhibitors, a Franz diffusion cell was provided utilizing cadaver skin as the membrane and a 1% Tween 80 solution as the receptor phase. Frozen cadaver skin was thawed at room temperature and punched with a 20 mm puncher. The receptor compartment of the Franz diffusion cell was filled with 1% Tween 80 solution and the diffusion cells maintained at 32° C. A 6% polyethylene glycol-20-oleyl ether is also suitable as a receptor fluid. The skin was mounted on the receptor, covered with the cup and fastened by a clamp. The air bubbles were removed from the receptor fluid and it was allowed to equilibrate for 30 minutes. COX-2 pharmaceutical compositions, according to the present invention, were brought into contact with the cadaver skin and the amount of drug which permeated through the cadaver skin in a 24 hour period was determined by high performance liquid chromatography.

[3] = Table 6 (examples), Saturated Cb in 5% Pb, 67% EtOH
[4] = Table 6 (examples), Saturated Vb in 5% Pb, 67% EtOH
[5] = Table 1, drug saturated solution, vehicle 70% EtOH, 32° C.
[6] = Table 1, drug saturated solution, vehicle EtOH

solubility ([1]; aqueous with cosolvent or surfactant or cyclodextrin, thermodynamic from solid) [mg/mL]	Flux [2, 3] [μg/cm^2 · day]	Flux [2, 4] [μg/cm^2 · day]	Effect as permeation enhancer on transdermal delivery of selective COX-2 drugs across the skin ([2]; parecoxib used as permeation enhancer)	Flux [2, 5] [μg/cm^2 · day]	Flux [2, 6] [μg/cm^2 · day]	Skin Flux ([2]; % w/w: water 30, ethanol 30, isopropanol 10, 1,3-butanediol 22, oleyl alcohol 5, thymol 3) [μg/cm^2 · day]	Skin Flux ([2]; % w/w: water 30, ethanol 62, oleyl alcohol 5, thymol 3) [μg/cm^2 · day]	Skin Flux ([2]; % w/w: water 33, ethanol 62, oleyl alcohol 5) [μg/cm^2 · day]	solubility ([1]; 70% aqueous ethanol, aqueous with cosolvent or surfactant or cyclodextrin, thermodynamic from solid, Table 1, drug saturated solution, vehicle 70% EtOH, read-out: Solubility) [mg/mL]	solubility ([1]; Table 2, 70% aqueous ethanol solution) [mg/mL]	solubility ([1]; ethanol, organic solvent or mixture, thermodynamic from solid, Table 1, drug saturated solution, vehicle EtOH, read-out: Solubility) [mg/mL]	solubility ([1]; polyethylene glycol 400, organic solvent or mixture, thermodynamic from solid, Table 1, drug saturated solution, vehicle PEG 400, read-out: Solubility) [mg/mL]	solubility ([1]; propylene glycol, organic solvent or mixture, thermodynamic from solid, Table 1, drug saturated solution, vehicle PG, read-out: Solubility) [mg/mL]	Compound
386 (≈ 1040 mM)	74.7 ± 14.7	64.1 ± 11.3	increase the transdermal delivery											CCC(=O)NS(=O)(=O)c1ccc(-c2c(-c3ccccc3)noc2C)cc1 [Parecoxib, parecoxib]
		108 ± 16.7		12.8	1.44	302 ± 48.9	441 ± 160	287 ± 23.9						Cc1onc(-c2ccccc2)c1-c1ccc(S(N)(=O)=O)cc1 [Valdecoxib, valdecoxib]
	183 ± 153			15.7	5.62				15.2 (≈ 39.9 mM)	15.2 (≈ 39.9 mM)	91.4 (≈ 240 mM)	297 (≈ 779 mM)	33.3 (≈ 87.3 mM)	Cc1ccc(-c2cc(C(F)(F)F)nn2-c2ccc(S(N)(=O)=O)cc2)cc1 [Celecoxib, celecoxib]
